Measurements taken from patent US9802901B2, “Antibacterial 2H-indazole derivatives” (priority 2013, dated 2017).
In brackets after ≈: the same amount, converted by molar mass. Like-named read-outs stand apart in the source and are kept apart here.

Legend:
wild-type E. coli A-1261 = assay: MIC against wild-type E. coli A-1261 with or without alkaline phosphatase or esterase; assay type: cell-based; settings: Escherichia coli
Method: Minimal Inhibitory Concentrations (MICs; mg/L) were determined in cation-adjusted Mueller-Hinton Broth by a microdilution method following the description given in “Methods for Dilution Antimicrobial Susceptibility Tests for Bacteria that Grow Aerobically”, Approved standard, 7th ed., Clinical and Laboratory Standards Institute (CLSI) Document M7-A7, Wayne, Pa., USA (2006).
The compounds of Examples 62 and 63 were tested against wild-type E. coli A-1261 in the absence of alkaline phosphatase or esterase, in the presence of an alkaline phosphatase and in the presence of an esterase. The corresponding antibacterial test results are given in Table 2 hereafter (MICs in mg/L).

E. coli ATCC25922 = assay: Bacterial growth minimal inhibitory concentration (broth microdilution, CLSI M7-A7); assay type: cell-based, Escherichia coli; settings: Escherichia coli, ATCC25922; cation-adjusted Mueller-Hinton Broth, microdilution; quinolone-sensitive strain; read-out: MIC for E. coli ATCC25922
Summary of the method: (§1)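 Broth microdilution in cation-adjusted Mueller-Hinton Broth per CLSI M7-A7; MICs reported in mg/L. K. pneumoniae A-651 and A. baumannii T6474 are multiply resistant, quinolone-resistant strains; E. coli ATCC25922 and P. aeruginosa ATCC27853 are quinolone-sensitive.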

P. aeruginosa ATCC27853 = assay: as above; assay type: cell-based, Pseudomonas aeruginosa; settings: Pseudomonas aeruginosa, ATCC27853; cation-adjusted Mueller-Hinton Broth, microdilution; quinolone-sensitive strain; read-out: MIC for P. aeruginosa ATCC27853
Summary of the method: as §1

[1] = tested on: Acinetobacter baumannii T6474; assay: as above; assay type: cell-based; settings: Acinetobacter baumannii, T6474; cation-adjusted Mueller-Hinton Broth, microdilution; multiply-resistant (quinolone-resistant) strain; read-out: MIC for A. Baumannii T6474
Summary of the method: as §1

K. pneumoniae A-651 = assay: as above; assay type: cell-based, Klebsiella pneumoniae; settings: Klebsiella pneumoniae, A651; cation-adjusted Mueller-Hinton Broth, microdilution; multiply-resistant (quinolone-resistant) strain; read-out: MIC for K. Pneumoniae A-651
Summary of the method: as §1

[2] = alkaline phosphatase 2 i.U./mL, read-out: MIC for E. coli A-1261 In the presence of an alkaline phosphatase (2 i.U./mL)
[3] = esterase 10 i.U./mL, read-out: MIC for E. coli A-1261 In the presence of an esterase (10 i.U./mL)
[4] = no alkaline phosphatase or esterase, read-out: MIC for E. coli A-1261 In the absence of alkaline phosphatase or esterase

**Q.** For `C[C@@](CCn1cc2cc(C#Cc3ccc(C4(COP(=O)(O)O)CC4)cc3)ccc2n1)(C(=O)NO)S(C)(=O)=O` [Example 62, (R)-(1-(4-((2-(4-(hydroxyamino)-3-methyl-3-(methylsulfonyl)-4-oxobutyl)-2H-indazol-5-yl)ethynyl)phenyl)cyclopropyl)methyl dihydrogen phosphate], which MIC (wild-type E. coli A-1261; [2]) is on record?
**A.** 1 µg/mL

**Q.** What about the MIC (wild-type E. coli A-1261; [3]) of the same compound?
**A.** > 16 µg/mL

**Q.** What about the MIC (wild-type E. coli A-1261; [4]) of the same compound?
**A.** > 16 µg/mL

**Q.** Which MIC (E. coli ATCC25922) does the source give for `CN(C)CC(=O)OCC1(c2ccc(C#Cc3ccc4nn(CC[C@](C)(C(=O)NO)S(C)(=O)=O)cc4c3)cc2)CC1.Cl` [Example 63, (R)-(1-(4-((2-(4-(hydroxyamino)-3-methyl-3-(methylsulfonyl)-4-oxobutyl)-2H-indazol-5-yl)ethynyl)phenyl)cyclopropyl)methyl dimethylglycinate hydrochloride] here?
**A.** 2 µg/mL

**Q.** And the MIC (P. aeruginosa ATCC27853)?
**A.** 8 µg/mL

**Q.** And the MIC [1]?
**A.** 8 µg/mL

**Q.** And the MIC (K. pneumoniae A-651)?
**A.** 4 µg/mL

**Q.** What about the MIC (wild-type E. coli A-1261; [2]) of the same compound?
**A.** 0.5 µg/mL

**Q.** What about the MIC (wild-type E. coli A-1261; [3]) of the same compound?
**A.** 0.063 µg/mL

**Q.** What about the MIC (wild-type E. coli A-1261; [4]) of the same compound?
**A.** 0.25 µg/mL

**Q.** Which results are given for `C[C@@](CCn1cc2c(F)c(C#Cc3ccc(C4(O)COC4)cc3)ccc2n1)(C(=O)NO)S(C)(=O)=O` [Example 29, (R)-4-{4-fluoro-5-[4-(3-hydroxy-oxetan-3-yl)-phenylethynyl]-indazol-2-yl}-N-hydroxy-2-methylsulfonyl-2-methyl-butanamide]?
**A.** MIC (E. coli ATCC25922): 0.25 µg/mL (≈ 0.498 µM); MIC (P. aeruginosa ATCC27853): 1 µg/mL (≈ 1.99 µM); MIC [1]: 0.5 µg/mL (≈ 0.997 µM); MIC (K. pneumoniae A-651): 0.25 µg/mL (≈ 0.498 µM)

**Q.** `C[C@@](CCn1cc2cc(C#Cc3ccc([C@H]4C[C@@H]4CO)cc3)ccc2n1)(C(=O)NO)S(C)(=O)=O` [Example 42, (R)—N-hydroxy-4-(5-((4-((1S,2S)-2-(hydroxymethyl)cyclopropyl)phenyl)ethynyl)-2H-indazol-2-yl)-2-methyl-2-(methylsulfonyl)butanamide] was tested. Which MIC (E. coli ATCC25922) did it give?
**A.** 0.063 µg/mL (≈ 0.131 µM)

**Q.** And the MIC (P. aeruginosa ATCC27853)?
**A.** 0.25 µg/mL (≈ 0.519 µM)

**Q.** And the MIC [1]?
**A.** 0.125 µg/mL (≈ 0.26 µM)

**Q.** What about the MIC (K. pneumoniae A-651) of the same compound?
**A.** 0.063 µg/mL (≈ 0.131 µM)

**Q.** `C[C@@](CCn1cc2cc(C#CC#CC3(O)CSC3)ccc2n1)(C(=O)NO)S(C)(=O)=O` [Example 13, (R)—N-hydroxy-4-(5-((3-hydroxythietan-3-yl)buta-1,3-diyn-1-yl)-2H-indazol-2-yl)-2-methyl-2-(methylsulfonyl)butanamide] was tested. Which MIC (E. coli ATCC25922) did it give?
**A.** 0.125 µg/mL (≈ 0.279 µM)

**Q.** What about the MIC (P. aeruginosa ATCC27853) of the same compound?
**A.** 0.5 µg/mL (≈ 1.12 µM)

**Q.** What about the MIC [1] of the same compound?
**A.** 32 µg/mL (≈ 71.5 µM)

**Q.** And the MIC (K. pneumoniae A-651)?
**A.** 0.25 µg/mL (≈ 0.559 µM)

**Q.** Which MIC (E. coli ATCC25922) does the source give for `COc1ccc(-c2ccc3nn(CC[C@](C)(C(=O)NO)S(C)(=O)=O)cc3c2)c(F)c1` [Example 1, (R)-4-[5-(2-fluoro-4-methoxy-phenyl)-indazol-2-yl]-N-hydroxy-2-methylsulfonyl-2-methyl-butanamide] here?
**A.** 0.063 µg/mL (≈ 0.145 µM)

**Q.** What about the MIC (P. aeruginosa ATCC27853) of the same compound?
**A.** 2 µg/mL (≈ 4.59 µM)

**Q.** And the MIC [1]?
**A.** 1 µg/mL (≈ 2.3 µM)

**Q.** And the MIC (K. pneumoniae A-651)?
**A.** 0.063 µg/mL (≈ 0.145 µM)

**Q.** With `CN(C)C1(c2ccc(C#Cc3ccc4nn(CC[C@](C)(C(=O)NO)S(C)(=O)=O)cc4c3)cc2)COC1.Cc1ccc(S(=O)(=O)O)cc1` [Example 30, (R)-4-{5-[4-(3-dimethylamino-oxetan-3-yl)-phenylethynyl]-indazol-2-yl}-N-hydroxy-2-methylsulfonyl-2-methyl-butanamide toluene-4-sulfonic acid salt] as the compound, how does the MIC (E. coli ATCC25922) read?
**A.** 1 µg/mL

**Q.** What about the MIC (P. aeruginosa ATCC27853) of the same compound?
**A.** 4 µg/mL

**Q.** And the MIC [1]?
**A.** 2 µg/mL

**Q.** And the MIC (K. pneumoniae A-651)?
**A.** 2 µg/mL

**Q.** Which MIC (E. coli ATCC25922) does the source give for `C[C@@](CCn1cc2cc(C#CC#CC3(CO)COC3)ccc2n1)(C(=O)NO)S(C)(=O)=O` [Example 68, (R)—N-hydroxy-4-(5-((3-(hydroxymethyl)oxetan-3-yl)buta-1,3-diyn-1-yl)-2H-indazol-2-yl)-2-methyl-2-(methylsulfonyl)butanamide] here?
**A.** 1 µg/mL (≈ 2.24 µM)

**Q.** And the MIC (P. aeruginosa ATCC27853)?
**A.** 1 µg/mL (≈ 2.24 µM)

**Q.** And the MIC [1]?
**A.** > 32 µg/mL

**Q.** And the MIC (K. pneumoniae A-651)?
**A.** 1 µg/mL (≈ 2.24 µM)

**Q.** How did the MIC (E. coli ATCC25922) turn out when `CC(CCn1cc2cc(CCc3ccccc3)ccc2n1)(C(=O)NO)S(C)(=O)=O` (racemic) [RE5, (RS)—N-hydroxy-2-methylsulfonyl-2-methyl-4-(5-phenethyl-indazol-2-yl)-butanamide] was run?
**A.** 0.5 µg/mL (≈ 1.2 µM)

**Q.** What about the MIC (P. aeruginosa ATCC27853) of the same compound?
**A.** 8 µg/mL (≈ 19.3 µM)

**Q.** What about the MIC [1] of the same compound?
**A.** 0.25 µg/mL (≈ 0.602 µM)

**Q.** What about the MIC (K. pneumoniae A-651) of the same compound?
**A.** 2 µg/mL (≈ 4.81 µM)
